We go through two molecules from patent publication EP2433619A1, “Novel antitumoral agent and its therapeutic uses” (Intsel Chimos, priority 2010, dated 2012).

Values joined by “and” are separate entries in the source; they are usually repeats but may differ in a detail not shown here. Equal values may be shown once. “Also recorded” adds a separate entry of the source.

One data set deals with tumour astrocyte lines. The following applies: lines from primary cultures of astrocytes of newborn rat brain; cited from earlier work.
Data set [1] has as its system rat brain C6 glioblastoma cells. The data set is described as follows: intratumoral injection of liposomes in rats with intracerebral implantation of C6 glial cells (earlier studies). The following applies: compared with animals treated with liposomes only. Format: in vivo. An excerpt:
The effect of 7-β-hydroxy cholesteryl-3-β-oleate-ester on rat brain C6 glioblastoma cells was studied (Werthle M & All).
The ester of 7-β-hydroxy-cholesterol, the 7-β-hydroxy cholesteryl-3-β-oleate-ester (7-β-OHCOE) belongs to the oxysterols.

On the set-up of data set [2]: species or system rats and mice. The following applies: in vivo.
Data set [3] is described as follows: stability of Oxysterol solution to autoclave sterilisation. Format: physicochemical. How it is done:
A solution of 5 mg Oxysterol in 5 ml of a mixture Acetonitrile / isopropanol (44/56 v/v) is prepared then sterilized in the autoclave for 20 min at 121°C. The solution is analysed according to a […] method of oxysterol before and after autoclaving. The solution of oxysterol is subjected to a second autoclaving for 30minutes at 121°C. The areas of the peaks of oxysterol are determined and the yield after autoclaving is calculated in the following manner Yield: Area of oxysterol after autoclaving; Area of oxysterol before autoclaving x 100 [formula]

Data set [4] can be described thus: stability of active principle in the finished product to autoclaving. In kind it is physicochemical. The following applies: for Content in oxysterol: samples PE1-PE3, listed as oxysterol. How it is done: A batch has been subjected to a dosage before and after autoclaving 20 minutes at 121 °C, to determine whether oxysterol also resists to autoclaving. Three samples have been analysed :
The autoclaving yield is calculated in the following manner Yield autoclaving: Content oxysterol after autoclaving; Content oxysterol before autoclaving x 100 [formula]

Another data set concerns glioma C6 Cells. The data set is described as follows: single stereotactic cerebral intra-ventricular injection in rats implanted with glioma C6 cells. In kind it is in vivo.
The subject of data set [5] is Advanced glioblastoma, Grade III o IV astrocytoma, Anaplastic oligodendroglioma. The data set is described as follows: compassionate clinical trial, stereotactic administration of liposomal form. In kind it is in vivo, patients. The conditions noted are these: 1 to 3 doses, total 0.05 to 3.2mg/patient.
Data set [6] relates to rat brain C6 glioblastoma cells. The following applies: injection of liposomes containing the ester vs liposomes without oxysterol (Werthle M & All); cited from earlier work.
[7] abbreviates: 2 autoclavings, second for 30 minutes at 121°C.
The mark [8] stands for this setting: after autoclaving 20 minutes at 121 °C.

On to `CC(C)CCC[C@@H](C)[C@H]1CC[C@H]2[C@@H]3[C@@H](O)C=C4C[C@@H](O)CC[C@]4(C)[C@H]3CC[C@]12C` [7-β-OH-CH, 7 beta-hydroxy-cholesterol], for which, in the data set on tumour astrocyte lines, the “lethal effect / cytotoxicity” value was “lethal effect”.

Take `CCCCCCCC/C=C\CCCCCCCC(=O)O[C@H]1CC[C@@]2(C)C(=C[C@H](O)[C@H]3[C@@H]4CC[C@H]([C@H](C)CCCC(C)C)[C@@]4(C)CC[C@@H]32)C1` [7-β-OHCOE, 7-β-hydroxy cholesteryl-3-β-oleate-ester]: the tumor growth entry in data set [1] is “significant regression of tumor growth; also recorded: spectacular regression of tumour growth”. For the same molecule, in data set [2], the metabolism result was “metabolized to cholesterol within the cerebral parenchyma” and the noxious effects result is reported as “no noxious effects”. In addition, in data set [3] (1 autoclaving, 20 min at 121°C), the “Area oxysterol after autoclaving” value is on record as 5517,4 and the Yield of autoclaving is given as 100,2%. In data set [3] (1 autoclaving, 5 mg in 5 ml Acetonitrile / isopropanol (44/56 v/v)), the “Area oxysterol before autoclaving” value is listed as 5506,5. Besides, in data set [3] (2 autoclavings), the “Area oxysterol before autoclaving” value was 5666,1. Also, in data set [3] (setting [7]), the “Area oxysterol after autoclaving” value was 5716,3 and the Yield of autoclaving is on record as 100,9%. In data set [4] (setting [8]), the “Content in oxysterol, Average” value was 1,43 mg/g; the Content in oxysterol is 1,42 mg/g and 1,41 mg/g and 1,45 mg/g. Further, in data set [4] (autoclaving 20 minutes at 121 °C), the “average yield of autoclaving” value is 97,9%. Also, in data set [4] (before autoclaving), the “Content in oxysterol, Average” value is 1,46 mg/g; the Content in oxysterol is 1,45 mg/g and 1,46 mg/g. The survival result with glioma C6 Cells (injection of liposomal form in experimental animals) is “did affect neither survival nor body weight”. In addition, the “total tumoral volume, mean value” in the data set on glioma C6 Cells (liposomal, injected 3 days after implantation, sacrificed 10 days after treatment, reduced from 4.4mm3) was 0.8 mm3. Also, the body weight entry in the data set with glioma C6 Cells (rat, in vivo) is “did affect neither survival nor body weight”. Also, in data set [5] (11 patients included), the “partial or total remission observed” value was 3 patients. Besides, the side effects result in data set [5] (11 patients) was “No significant side effects were observed”. Also, the tumor volume entry in data set [6] is recorded as “marked decrease in tumor volume”.
